Ten compounds from ChEMBL document CHEMBL1153206, “Evaluation of pyrrolin-2-one derivatives synthesized by a new practical method as inhibitors of plasminogen activator inhibitor-1 (PAI-1)” (Bioorg Med Chem Lett, 2010) can be followed below.

For experiment [1], the target named is T1, Plasminogen activator inhibitor 1 (Homo sapiens, UniProt P05121). The experiment can be described thus: Inhibition of human PAI1.
In experiment [2] the target is T1, Plasminogen activator inhibitor 1. The experiment can be described thus: Inhibition of human PAI1 at 15 uM.
Experiment [3] shares this target. Kind of experiment: Inhibition of human PAI1 at 10 uM.

pIC50: −log10 of the molar value.

T1 sequence (P05121 whole entry): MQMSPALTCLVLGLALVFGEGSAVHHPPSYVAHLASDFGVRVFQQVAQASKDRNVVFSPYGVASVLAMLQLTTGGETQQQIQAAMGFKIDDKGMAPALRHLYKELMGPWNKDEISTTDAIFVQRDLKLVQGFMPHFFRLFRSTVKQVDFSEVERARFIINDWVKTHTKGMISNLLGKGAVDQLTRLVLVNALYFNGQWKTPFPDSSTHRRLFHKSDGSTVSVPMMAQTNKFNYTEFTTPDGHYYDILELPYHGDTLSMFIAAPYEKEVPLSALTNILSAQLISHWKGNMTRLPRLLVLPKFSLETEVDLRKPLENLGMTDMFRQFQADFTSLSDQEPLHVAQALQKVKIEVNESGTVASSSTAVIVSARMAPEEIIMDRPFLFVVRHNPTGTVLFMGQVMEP

With `COc1ccc(C2=C(c3ccco3)/C(=C/c3ccc(/C=C/C(=O)O)o3)NC2=O)cc1OC`, the pIC50 (in general, the negative decadic logarithm of the IC50, by convention in mol/L) in experiment [1] was 5.96. On the same count and under the same terms, in the case of `O=C(O)/C=C/c1ccc(/C=C2\NC(=O)C(c3ccccc3)=C2c2ccco2)o1` it was 5.82. As for `O=C1N/C(=C\c2ccc(C(=O)O)o2)C(c2ccco2)=C1c1ccccc1`, the inhibition (commonly the change of the read-out against control, counted positive when it falls) in experiment [2] was found to be 34%. `COc1ccc(C2=C(c3cccs3)/C(=C/c3ccc(/C=C/C(=O)O)o3)NC2=O)cc1OC` gave a pIC50 in experiment [1] of 6.16. In experiment [3], `O=C1N/C(=C\c2ccco2)C(c2ccco2)=C1c1ccccc1` came in with an inhibition of 36%.

`COc1ccccc1C1=C(c2ccccc2)C(=O)N/C1=C\c1ccc(C)o1` showed a negative-log IC50 (pIC50) in experiment [1] of 6.03. `N#C/C=C/c1ccc(/C=C2\NC(=O)C(c3ccccc3)=C2c2ccco2)o1` had a pIC50 in experiment [1] of 5.92. In experiment [1], `O=C(O)COc1cccc(/C=C2\NC(=O)C(c3ccccc3)=C2c2ccccc2)c1` gave a pIC50 of 5.02. As for `COc1ccccc1C1=C(c2ccccc2)C(=O)N/C1=C\c1ccc(/C=C/C(=O)O)o1`, the pIC50 in experiment [1] is 6.19. As to `COc1ccc(C2=C(c3ccco3)/C(=C/c3ccncc3)NC2=O)cc1OC`, the pIC50 in experiment [1] is 5.11.
